From patent publication US10532066B2, “Surfactant lipids, compositions thereof, and uses thereof” (National Jewish Health, priority 2007, dated 2020)

Assays:
BALB/c mice = assay: Lung inflammation induced by intratracheally administered LPS; settings: LPS 1 μg + phospholipids 30 μg sprayed into trachea, 18 h
Procedure: A mixture of LPS (1 μg) and phospholipids (30 μg) in 20 μl of PBS was sprayed into murine trachea using a MicroSprayer™ aerosolizer. At 18 h after stimulation, lungs were lavaged via the trachea. TNF-α production (A) was determined by ELISA. The number of leukocytes was counted and differential cell counts (B) were determined from at least 300 cells on cytocentrifuged preparations. Mouse KC (C) and MIP-2 (D) secretion were determined using Quantikine kits (R&D System). The data shown are the means±S.E. from six to eight mice.
Human and mouse TNF-α ELISA kits were purchased from BioSource (Camarillo, Calif.). Mouse KC and MIP-2 Quantikine kits were purchased from R&D System. Measurements of these cytokines were according to the manufacturers' protocols.
Female BALB/c mice from 6 to 8 weeks of age were obtained from Jackson Laboratories (Bar Harbor, Me.). Experiments were conducted under a protocol approved by the Institutional Animal Care and Use Committee of the National Jewish Medical and Research Center. Liposomes were formed using a Liposofast™ (Avestin; Ottawa, Canada), which makes unilamellar liposomes of 100 nm of diameter, and then mixed with an aqueous solution containing LPS. The mixture of LPS and phospholipids was sprayed into murine trachea using a MicroSprayer™ aerosolizer (PennCentury, Philadelphia, Pa.) under isoflurene anesthesia. […] After stimulation, lungs were lavaged via the trachea with 1 ml of Hank's balanced salt solution (Invitrogen Corporation, Carlsbad, Calif.). The volume of collected BALF was measured in each sample and the number of leukocytes was counted (Coulter Counter; Coulter Corporation, Hialeah, Fla.). Differential cell counts were determined from at least 300 cells on cytocentrifuged preparations (Cytospin; Shandon Ltd., Runcorn, Cheshire, UK). Slides were stained with modified Wright-Giemsa (Hema; Protocol, Swedesboro, N.J.) and the cell populations differentiated by standard hematologic procedures. Cytokine levels in the BALF or in the supernatants of cultured airway macrophages were measured using ELISA kits.

MD-2 = molecular target: T1, MD-2 (Homo sapiens, UniProt Q9Y6Y9); assay: MD-2 binding to solid phase phospholipids; settings: for binding to MD-2: 1.25 nmole lipid per well, MD-2 1 μg/ml
T1 construct: made in house; host or cells: baculovirus-insect cell expression system
T1 sequence (Q9Y6Y9 19-160): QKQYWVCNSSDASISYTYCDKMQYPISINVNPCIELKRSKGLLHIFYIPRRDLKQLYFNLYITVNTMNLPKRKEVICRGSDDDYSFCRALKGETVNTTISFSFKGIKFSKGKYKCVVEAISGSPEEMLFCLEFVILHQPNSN
Procedure: FIG. 16. MD-2 preferentially binds POPG.
(§1) The wells were then washed with 20 mM Tris buffer (pH 7.4) containing 0.15 M NaCl and 5 mM CaCl2 or 2 mM EGTA (buffer B), and 1 μg/ml anti-human CD14 IgG or anti-His antibody (50 μl/well) in buffer A was added and incubated overnight at 4° C., followed by the incubation with horseradish peroxidase (HRP)-labeled anti-mouse IgG (1:5000) for 1 h. After washing the wells with buffer B, the peroxidase reaction was finally performed using o-phenylenediamine as a substrate. The binding of CD14 or MD-2 to phospholipids was detected by measuring absorbance at 490 nm.

human CD14 = molecular target: T2, human CD14 (Homo sapiens, UniProt P08571); assay: CD14 binding to solid phase phospholipids (ELISA); settings: for direct binding of CD14 to molecular species of PG: CD14 1 μg/ml, POPG = 100%; for binding of CD14 to solid phase lipid: varying CD14, 37° C. 1 h
T2 construct: purchased Cell Sciences Inc. (Canton, Mass.)
T2 sequence (P08571 20-345): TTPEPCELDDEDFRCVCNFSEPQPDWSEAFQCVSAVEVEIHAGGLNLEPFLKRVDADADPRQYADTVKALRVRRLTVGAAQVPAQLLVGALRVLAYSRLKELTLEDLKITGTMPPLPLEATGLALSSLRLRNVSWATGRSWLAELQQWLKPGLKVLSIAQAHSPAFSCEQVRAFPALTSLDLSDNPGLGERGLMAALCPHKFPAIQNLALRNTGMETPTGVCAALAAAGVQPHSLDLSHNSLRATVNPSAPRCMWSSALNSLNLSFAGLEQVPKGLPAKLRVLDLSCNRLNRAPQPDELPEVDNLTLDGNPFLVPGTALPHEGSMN
Procedure: FIG. 12. CD14 binds to solid phase lipids. […] Nonspecific binding was blocked with 20 mM Tris buffer (pH 7.4) containing 0.15 M NaCl, 5 mM CaCl2 (in the upper panel) or 2 mM EGTA (in the lower panel), and 5% (wt/vol) BSA (buffer A).
FIG. 13. PG Inhibits CD14 binding to solid phase LPS. (A) Various types of PG were coated onto microtiter plates, and incubated with CD14 (1 μg/ml) at 37° C. for 1 h. […] Types of PG shown on the graph are: dilauroylphosphatidylglycerol (DLPG), dimyristoyl-phosphatidylglycerol (DMPG), dipalmitoylphosphatidylglycerol (DPPG), and 16:0/18:1; palmitoyl-oleoyl-phosphatidylglycerol (POPG). […] The binding of CD14 to LPS was detected using anti-CD14 monoclonal antibody. The ELISA based absorbance of CD14 bound to LPS was defined as 100%.
as §1

LBP binding to CD14 = molecular target: T3, LBP binding to CD14 (Homo sapiens, UniProt P08571); assay: Phospholipid competition for LBP-CD14 binding; settings: LBP 1 μg/ml, liposomes 20 μg/ml
T3 construct: purchased Cell Sciences Inc. (CD14); R&D systems (LBP)
T3 sequence (P08571 20-345 limits assumed): T2 sequence (P08571 20-345)
Procedure: CD14 (2 μg) or sTLR4 (100 ng) in aliquots of 20 μl of buffer B were pipeted onto a 96-well plate, and the solvent evaporated using a warm air dryer. […] The amount of bound LBP or MD-2 was detected using specific antibodies.

| Compound | KC secretion in BALF (BALB/c mice) | LPS-induced neutrophil infiltration (BALB/c mice) | MIP-2 secretion in BALF (BALB/c mice) | TNF-α secretion in the lung (BALF) (BALB/c mice) | binding to MD-2 relative to the POPG value (MD-2; POPG = 100%) [%] | direct binding of CD14 to molecular species of PG (human CD14) | reduction of the interaction of LBP with CD14 (LBP binding to CD14) | binding of CD14 relative to the levels of POPG binding (human CD14; 1.25 nmole lipid per well) | binding to MD-2 (MD-2) | binding of CD14 to solid phase lipid (human CD14; 1.25 nmole lipid per well) |
| --- | --- | --- | --- | --- | --- | --- | --- | --- | --- | --- |
| CCCCCCCCCCCCCC(=O)OCC(COP(=O)(O)OCC(O)CO)OC(=O)CCCCCCCCCCCCC (stereo not drawn) [DMPG, dimyristoyl-phosphatidylglycerol] | attenuated | modestly attenuated | attenuated | significantly attenuated | ~50 | strongest direct binding interactions |  |  |  |  |
| CCCCCCCCCCCCCCCC(=O)OC[C@H](COP(=O)([O-])OCC[N+](C)(C)C)OC(=O)CCCCCCCCCCCCCCC [DPPC, dipalmitoyl-phosphatidylcholine, reference compound] |  | not |  | unaffected |  |  | not exhibited | approximately 30% |  |  |
| CCCCCCCCCCCCCCCC(=O)OCC(COP(=O)(O)OCC(O)CO)OC(=O)CCCCCCCCCCCCCCC (stereo not drawn) [DPPG, dipalmitoyl-phosphatidylglycerol, reference compound] |  |  |  |  |  | nearly the same extent as POPG and DMPG |  |  | Neither saturated nor unsaturated PC, nor unsaturated PI, nor DPPG showed any significant binding |  |
| CCCCCCCC/C=C\CCCCCCCC(=O)O[C@H](COC(=O)CCCCCCCCCCCCCCC)COP(=O)(O)OCC(O)CO (stereo partly drawn) [POPG, palmitoyl-oleoyl-phosphatidylglycerol] | especially POPG attenuated | modestly attenuated | especially POPG attenuated | significantly attenuated |  | strongest direct binding interactions | approximately 40% |  | strongly bound | strongly bound |
| phosphatidylinositol [PI] | attenuated | modestly attenuated | attenuated | significantly attenuated |  |  | not exhibited |  | Neither saturated nor unsaturated PC, nor unsaturated PI, nor DPPG showed any significant binding | strongly bound |
